# Laboratory results: ChEMBL document CHEMBL2380208, “Novel quinoline derivatives as inhibitors of bacterial DNA gyrase and topoisomerase IV” (Bioorg Med Chem Lett, 2013)
# How the values were obtained:
# Staphylococcus aureus [1] = test: Antibacterial activity against fluoroquinolone-resistant Staphylococcus aureus harboring DNA gyrase D83N mutant; format: functional
# Staphylococcus aureus [2] = test: Antibacterial activity against fluoroquinolone-resistant Staphylococcus aureus harboring DNA gyrase M121K mutant; format: functional
# Staphylococcus aureus [3] = test: Antibacterial activity against fluoroquinolone-resistant Staphylococcus aureus 1095; format: functional
# DNA gyrase = DNA gyrase (Staphylococcus aureus, UniProt P0A0K8+P20831); test: Inhibition of Staphylococcus aureus DNA gyrase; format: protein-complex assay
# [4] = Inhibition of Staphylococcus aureus DNA topoisomerase 4
# Streptococcus pyogenes [5] = test: Antibacterial activity against Streptococcus pyogenes; format: functional
# Staphylococcus aureus [6] = test: Antibacterial activity against Staphylococcus aureus; format: functional
# Staphylococcus aureus [7] = test: Antibacterial activity against Staphylococcus aureus 1146; format: functional
# [8] = Inhibition of human DNA topoisomerase 4
# [9] = Inhibition of Streptococcus pneumoniae topoisomerase 4
# [10] = Inhibition of Streptococcus pneumoniae DNA gyrase
# [11] = target: Voltage-gated inwardly rectifying potassium channel KCNH2 (Homo sapiens, UniProt Q12809); test: Inhibition of human ERG channel in HEK293 cells by voltage-gated patch clamp technique; format: cell-based
# Staphylococcus aureus [12] = test: Antibacterial activity against fluoroquinolone-resistant Staphylococcus aureus 1095 infected in mouse assessed as survival compound administered 0.5 to 4 hrs post-infection measured after 7 days; format: functional; details: read-out: PD50
# [13] = Clearance in rat at 2 mg/kg, iv and 5 mg/kg, po; format: ADME, organism-based; details: in vivo
# Streptococcus pyogenes [14] = test: Antibacterial activity against Streptococcus pyogenes 02C0203 infected in mouse assessed as survival compound administered 0.5 to 4 hrs post-infection measured after 7 days; details: 02C0203, in Mus musculus, read-out: PD50
# [15] = Volume of distribution at steady state in rat at 2 mg/kg, iv and 5 mg/kg, po; format: ADME, organism-based; details: in vivo, read-out: Vdss
# [16] = Oral bioavailability in rat at 5 mg/kg; format: ADME, organism-based; details: in vivo
SMILES,MIC (Staphylococcus aureus [1]) [µg/mL],MIC (Staphylococcus aureus [2]) [µg/mL],MIC (Staphylococcus aureus [3]) [µg/mL],IC50 (DNA gyrase) [µM],IC50 [4] [µM],MIC90 (Streptococcus pyogenes [5]) [µg/mL],MIC90 (Staphylococcus aureus [6]) [µg/mL],MIC (Staphylococcus aureus [7]) [µg/mL],IC50 [8] [µM],IC50 [9] [µM],IC50 [10] [µM],IC50 [11] [µM],ED50 (Staphylococcus aureus [12]) [mg/kg],clearance [13] [mL/min/kg],ED50 (Streptococcus pyogenes [14]) [mg/kg],Vd [15] [L/kg],bioavailability [16] [%]
COc1ccc2nccc([C@@H](O)CC[C@@H]3CCN(C4CC(c5ccc(Br)cc5F)C4)C[C@@H]3C(=O)O)c2c1 (stereo not given in full),> 64,> 64,8,6.25,> 200,,,,,,,,,,,,
O=C(O)c1cn(C2CC2)c2cc(N3CCNCC3)c(F)cc2c1=O [CIPROFLOXACIN],,,,,,0.5,> 64,,,,,,,,,,
COc1ccc2nccc([C@@H](O)CC[C@@H]3CCN(C4CC(c5cccc(F)c5)C4)C[C@@H]3C(=O)O)c2c1 (stereo not given in full),32,32,0.125,1.56,38,,,≤ 0.0625,,,,,,,,,
COc1ccc2nccc([C@@H](O)CC[C@@H]3CCN(C/C=C/c4ccccc4)C[C@@H]3C(=O)O)c2c1,> 64,> 64,1,4.7,> 200,,,0.5,,,,,,,,,
COc1ccc2nccc([C@H](O)CC[C@@H]3CCN(C4CC(c5ccccc5)C4)C[C@@H]3C(=O)O)c2c1 (stereo not given in full),,,,,,,,0.23,> 200,30,21.7,,,,,,
COc1ccc2nccc([C@@H](O)CC[C@@H]3CCN(C4CC(c5cc(F)cc(F)c5F)C4)C[C@@H]3C(=O)O)c2c1 (stereo not given in full),8,8,0.125,1.56,8.4,,,≤ 0.0625,,,,30.9,,,,,
COc1ccc2nccc([C@@H](O)CC[C@@H]3CCN(C4CC(c5cc(Cl)ccc5F)C4)C[C@@H]3C(=O)O)c2c1 (stereo not given in full),64,64,≤ 0.0625,1.56,33.3,,,≤ 0.0625,,,,,,,,,
COc1ccc2nccc(C(O)CC[C@@H]3CCN(C/C=C/c4cc(F)ccc4F)C[C@@H]3C(=O)O)c2c1 (stereo not given in full),10,13,0.5,7.66,8.84,,,0.25,100,3.75,6.25,,,,,,
COc1ccc2nccc([C@@H](O)CC[C@@H]3CCN(C4CC(c5cc(F)ccc5F)C4)C[C@@H]3C(=O)O)c2c1 (stereo not given in full),10,5.7,0.5,3,9.62,1,0.25,0.25,,,,9.97,28.2,43.9,32.5,1.3,47
COc1ccc2nccc([C@@H](O)CC[C@@H]3CCN(C4CC(c5c(F)ccc(F)c5OC)C4)C[C@@H]3C(=O)O)c2c1 (stereo not given in full),64,> 64,≤ 0.0625,3.13,25,,,≤ 0.0625,,,,,,,,,
COc1ccc2nccc([C@@H](O)CC[C@@H]3CCN(C4CC(c5cc(F)cc(F)c5)C4)C[C@@H]3C(=O)O)c2c1 (stereo not given in full),8,8,0.25,1.56,15,,,≤ 0.0625,,,,7.18,,,,,
COc1ccc2nccc([C@@H](O)CC[C@@H]3CCN(C4CC(c5cc(F)ccc5C(F)(F)F)C4)C[C@@H]3C(=O)O)c2c1 (stereo not given in full),16,32,0.5,9.4,60,,,0.25,,,,,,,,,
COc1ccc2nccc([C@@H](O)CC[C@@H]3CCN(C4CC(c5c(F)ccc(F)c5F)C4)C[C@@H]3C(=O)O)c2c1 (stereo not given in full),8,16,≤ 0.0625,1.56,35.6,,,≤ 0.0625,,,,,,,,,
COc1ccc2nccc([C@@H](O)CC[C@@H]3CCN(C4CC(c5cc(F)c(OC)cc5F)C4)C[C@@H]3C(=O)O)c2c1 (stereo not given in full),> 64,> 64,> 64,50,240,,,32,,,,,,,,,
